For data set [1], the system named is DLD-1 BRCA2(−/−). As to the kind of experiment: Cell growth inhibition assay (CellTiter-Glo cell viability). The note with it: DLD-1 BRCA2(−/−) cells, 7 days, CellTiter Glo 2.0. Type of data set: cell-based. The procedure:
(§1) Cell proliferation was measured through the cell viability assay using DLD-1 BRCA2(−/−) and parental isogenic pair and MDA-MB-436 (mutated BRCA1) cell lines. The CellTiter-Glo (CTG) based cell viability assay is designed to determine the number of viable cells in the culture because of compound effect, by quantifying ATP, which indicates the presence of metabolically active cells.
(§2) DLD-1 BRCA2(−/−) and parental isogenic pair were cultured in RPMI 1640 supplemented with 10% fetal bovine serum (FBS), and MDA-MB-436 cells were cultured in DMEM supplemented with 10% FBS. Both were cultured at 37° C. with […]. Invention compounds were distributed to the 384 well plate (Corning, 3764) using Echo acoustic liquid handler to form a 1:3 serially diluted final concentration with top dose of 10 or 30 μM.
Background: Cellular ATP, detected with luciferase, serves as a proxy for viable cell number.

The subject of data set [2] is MDA-MB-436 (mutated BRCA1) cell lines. The description is as above. The format is cell-based. The conditions noted are these: MDA-MB-436 cells, 7 days, CellTiter Glo 2.0. The procedure: as §1, §2
The target in data set [3] is PARP1 (Homo sapiens, UniProt P09874). The data set is described as follows: biochemical.
Chain of PARP1 (P09874 whole entry): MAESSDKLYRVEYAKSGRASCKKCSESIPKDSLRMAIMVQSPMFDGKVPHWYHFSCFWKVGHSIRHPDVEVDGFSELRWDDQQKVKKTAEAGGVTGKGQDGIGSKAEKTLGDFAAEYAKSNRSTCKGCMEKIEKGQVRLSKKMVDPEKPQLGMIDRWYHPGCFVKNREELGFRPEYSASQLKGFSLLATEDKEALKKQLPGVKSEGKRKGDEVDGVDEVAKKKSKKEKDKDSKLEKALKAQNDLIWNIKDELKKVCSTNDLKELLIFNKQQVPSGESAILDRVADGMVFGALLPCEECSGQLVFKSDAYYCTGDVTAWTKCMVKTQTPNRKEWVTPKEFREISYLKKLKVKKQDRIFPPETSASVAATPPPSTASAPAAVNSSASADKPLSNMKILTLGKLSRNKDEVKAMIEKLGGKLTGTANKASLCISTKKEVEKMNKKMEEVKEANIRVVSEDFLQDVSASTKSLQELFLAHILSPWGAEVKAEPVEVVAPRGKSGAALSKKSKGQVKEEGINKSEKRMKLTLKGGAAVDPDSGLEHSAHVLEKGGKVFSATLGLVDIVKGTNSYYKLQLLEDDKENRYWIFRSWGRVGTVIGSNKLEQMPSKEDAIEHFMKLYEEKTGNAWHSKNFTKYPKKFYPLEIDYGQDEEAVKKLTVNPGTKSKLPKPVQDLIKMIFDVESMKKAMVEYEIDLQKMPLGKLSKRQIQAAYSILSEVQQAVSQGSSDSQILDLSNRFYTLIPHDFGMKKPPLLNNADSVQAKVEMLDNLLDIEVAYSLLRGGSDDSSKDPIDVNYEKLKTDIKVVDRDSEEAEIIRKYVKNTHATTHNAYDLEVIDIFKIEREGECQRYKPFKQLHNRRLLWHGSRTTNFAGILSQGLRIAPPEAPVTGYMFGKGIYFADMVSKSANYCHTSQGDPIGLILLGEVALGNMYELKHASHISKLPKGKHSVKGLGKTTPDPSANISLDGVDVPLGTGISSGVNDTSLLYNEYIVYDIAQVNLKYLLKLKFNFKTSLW
Description: The assay was performed utilizing the following method:
Compounds were dissolved in DMSO an Echo550 liquid handler was utilized to make serial dilations in the desired concentration range in Optiplate-384F plates. 100% DMSO was used for the high (with protein) and low (without protein) control samples. 20 nL of compound or DMSO alone was added to individual assay plate wells.
PARP1 and PARP2 protein were expressed, purified, and diluted in assay buffer containing 50 mM Tris pH 8.0, 0.001% Triton X-100, 10 mM MgCl2, 150 mM NaCl to a final concentration of 20 nM. The PARPi-FL was then added at a final concentration of 3 nM.
The assay plate was centrifuged at 1000 rpm for 1 min and incubated for 4 h at room temperature.
The fluorescent polarization was read using an Envision plate reader using the following settings: • Excitation filter—FITC FP 480-Ex Slot 3 • Emission filter—FITC FP P-pol 535-Em Slot 4 • 2nd Emission filter—FITC FP S-pol 535-Em Slot 3 • Mirror module—FITC FP Dual Enh-Slot 1
XLFit (equation 201) is used to calculate a reported IC50 for each compound.
Data set [4] has as its target T1, MDR1 (Homo sapiens, UniProt P08183).
T1 construct: expressed in transfected cells; host or cells: MDCKII (Madin-Darby canine kidney) cells
As to the kind of experiment: In vitro human transporter efflux, MDCKII cells expressing MDR1. Type of data set: in vitro ADME. The procedure: (§3) Madin-Darby canine kidney (MDCKII) cells expressing either MDR1 or BCRP were seeded onto Corning HTS Transwell® 96-well polycarbonate permeable (0.4 μm pore) supports at a density of 545,000 cells/cm2. Cells were incubated for 4-8 days prior to assay, and monolayer integrity was assessed by measuring transepithelial electrical resistance (TEER). […] The final organic solvent concentration was 0.5% (v/v). Bidirectional (apical-to-basolateral and basolateral-to-apical) flux of the test and reference compounds was determined over a 2-hour incubation at 37° C. and […] with a relative humidity of 95%. At the end of the incubation, samples from the apical and basolateral side were taken and then precipitated with acetonitrile containing internal standard. After centrifugation at 3200×g, supernatants were diluted 1:1 (v/v) with water and subjected to analysis via HPLC-MS/MS.
(§4) The apparent permeability (Papp, units of x 10-6 cm/s) was calculated using the following equation: […]
(§5) Where dQ/dt was the rate of drug transport (pmol/s), A was the surface area of the membrane (0.143 cm^2), and DO was the initial donor concentration (nM or pmol/cm3).
(§6) Efflux ratio=Papp(B→A)/Papp(A→B)
(§7) Where Papp(B→A) is the apparent permeability in the basolateral-to-apical direction, and Papp(A→B) is the apparent permeability in the apical-to-basolateral direction.

The target in data set [5] is T2, BCRP (Homo sapiens, UniProt Q9UNQ0).
T2 construct: expressed in transfected cells; host or cells: MDCKII (Madin-Darby canine kidney) cells
T2 sequence (Q9UNQ0 1-655): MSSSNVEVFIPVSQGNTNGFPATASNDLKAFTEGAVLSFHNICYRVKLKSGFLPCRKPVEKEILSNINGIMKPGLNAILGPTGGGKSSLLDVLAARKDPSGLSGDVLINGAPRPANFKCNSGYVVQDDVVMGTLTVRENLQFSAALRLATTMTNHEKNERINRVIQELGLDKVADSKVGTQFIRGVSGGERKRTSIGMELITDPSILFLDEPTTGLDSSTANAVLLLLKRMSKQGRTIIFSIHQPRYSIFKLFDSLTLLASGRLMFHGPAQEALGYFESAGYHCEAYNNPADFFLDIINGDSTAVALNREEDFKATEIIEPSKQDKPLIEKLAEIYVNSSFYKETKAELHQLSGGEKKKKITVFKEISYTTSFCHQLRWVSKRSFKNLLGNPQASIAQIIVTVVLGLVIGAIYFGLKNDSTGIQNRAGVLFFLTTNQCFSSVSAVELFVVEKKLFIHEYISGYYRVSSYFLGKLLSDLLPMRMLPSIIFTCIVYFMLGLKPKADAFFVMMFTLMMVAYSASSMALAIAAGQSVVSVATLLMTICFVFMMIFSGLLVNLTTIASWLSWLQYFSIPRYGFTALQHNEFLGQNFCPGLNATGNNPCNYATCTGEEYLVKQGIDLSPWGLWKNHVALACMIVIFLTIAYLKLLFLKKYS
As to the kind of experiment: In vitro human transporter efflux, MDCKII cells expressing BCRP. The format is in vitro ADME. The procedure:
as §3, §4, §5, §6, §7

Usually EC50 stands for the concentration at which the effect is half-maximal. A low value points to greater potency. As usually defined, the IC50 is the concentration that gives 50% inhibition.

T1 sequence (P08183 whole entry): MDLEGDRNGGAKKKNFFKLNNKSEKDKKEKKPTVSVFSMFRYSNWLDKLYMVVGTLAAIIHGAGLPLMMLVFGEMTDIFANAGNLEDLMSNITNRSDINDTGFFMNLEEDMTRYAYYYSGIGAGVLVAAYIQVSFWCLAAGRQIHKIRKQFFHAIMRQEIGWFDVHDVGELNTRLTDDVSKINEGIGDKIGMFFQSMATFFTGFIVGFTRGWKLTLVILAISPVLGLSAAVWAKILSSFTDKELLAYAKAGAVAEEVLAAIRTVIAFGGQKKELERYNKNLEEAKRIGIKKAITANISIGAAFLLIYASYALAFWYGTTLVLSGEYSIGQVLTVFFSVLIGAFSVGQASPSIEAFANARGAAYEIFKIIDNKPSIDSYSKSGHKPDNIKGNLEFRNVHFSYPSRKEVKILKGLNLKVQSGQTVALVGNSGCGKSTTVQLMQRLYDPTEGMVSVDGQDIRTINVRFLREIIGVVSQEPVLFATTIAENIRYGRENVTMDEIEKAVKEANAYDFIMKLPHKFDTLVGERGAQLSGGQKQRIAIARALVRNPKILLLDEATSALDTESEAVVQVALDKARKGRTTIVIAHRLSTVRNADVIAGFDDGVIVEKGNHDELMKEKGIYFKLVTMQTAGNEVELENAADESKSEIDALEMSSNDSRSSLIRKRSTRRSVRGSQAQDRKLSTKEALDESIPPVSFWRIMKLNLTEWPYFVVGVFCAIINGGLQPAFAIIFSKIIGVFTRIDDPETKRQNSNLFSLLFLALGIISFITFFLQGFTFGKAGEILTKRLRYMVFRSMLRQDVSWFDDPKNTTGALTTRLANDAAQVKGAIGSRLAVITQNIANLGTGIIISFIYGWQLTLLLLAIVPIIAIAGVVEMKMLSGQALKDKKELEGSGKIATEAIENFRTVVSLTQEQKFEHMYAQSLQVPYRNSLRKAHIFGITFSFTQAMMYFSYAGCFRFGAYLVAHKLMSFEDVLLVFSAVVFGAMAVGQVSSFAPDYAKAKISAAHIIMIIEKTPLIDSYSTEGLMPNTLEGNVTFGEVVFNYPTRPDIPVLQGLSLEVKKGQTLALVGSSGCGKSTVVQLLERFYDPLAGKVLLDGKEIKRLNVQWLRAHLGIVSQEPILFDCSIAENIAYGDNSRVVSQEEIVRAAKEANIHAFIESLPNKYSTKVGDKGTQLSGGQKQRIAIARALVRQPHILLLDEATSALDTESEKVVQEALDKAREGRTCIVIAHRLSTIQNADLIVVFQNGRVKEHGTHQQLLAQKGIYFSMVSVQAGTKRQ

On to `CNC(=O)c1ccc(N2CCN(Cc3ccc4nc(C)c(=O)[nH]c4c3F)[C@H]3C[C@H]32)c(F)n1` (relative stereo) [Example 2, rel-6-fluoro-5-[(1R,6S)-5-[(5-fluoro-2-methyl-3-oxo-4H-quinoxalin-6-yl)methyl]-2,5-diazabicyclo[4.1.0]heptan-2-yl]-N-methylpyridine-2-carboxamide], for which the EC50 in data set [1] (Homo sapiens, DLD-1, 168 h) amounted to 3.5 nM; in data set [2] (Homo sapiens, 168 h), 7 nM.
As for `Cc1nc2ccc(CN3CCN(c4ccc(C(=O)NC5CC5)nc4)[C@H]4C[C@H]43)c(F)c2[nH]c1=O` (single isomer, unassigned) [Example 6], the EC50 in data set [1] (Homo sapiens, DLD-1, 168 h) was determined as 84 nM; in data set [2] (Homo sapiens, 168 h) it was 58 nM. This compound had an IC50 in data set [3] of 14 nM.
On to `Cc1nc2ccc(CN3CCN(c4ccc(C(=O)NC5CC5)nc4F)[C@H]4C[C@H]43)c(F)c2[nH]c1=O` (single isomer, unassigned) [Example 9], for which the EC50 in data set [1] (Homo sapiens, DLD-1, 168 h) was found to be 19 nM; in data set [2] (Homo sapiens, 168 h), 7.2 nM.
As for `CCc1nc2ccc(C(C)N3CCN(c4ccc(C(=O)NC)nc4)CC3)c(F)c2[nH]c1=O` (single isomer, unassigned) [Example 15], the EC50 was determined as 28 nM in data set [1] (Homo sapiens, DLD-1, 168 h) and 15 nM in data set [2] (Homo sapiens, 168 h).
For the compound `CCc1nc2ccc(C(C)N3CCN(c4ccc(C(=O)NC)nc4)CC3)c(F)c2[nH]c1=O` (single isomer, unassigned) [Example 16], the EC50 turned out to be 30 nM in data set [1] and 15 nM in data set [2].
On to `CCc1nc2ccc([C@H](C)N3CCN(c4ccc(C(=O)NC)nc4F)CC3)c(F)c2[nH]c1=O` (single isomer, unassigned) [Example 17], for which the EC50 is 7.7 nM in data set [1] (Homo sapiens, DLD-1, 168 h) and 6.8 nM in data set [2] (Homo sapiens, 168 h). The compound further yielded an IC50 in data set [3] of 24 nM.
Regarding `CCc1nc2ccc([C@@H](C)N3CCN(c4ccc(C(=O)NC)nc4F)CC3)c(F)c2[nH]c1=O` (single isomer, unassigned) [Example 18], the EC50 in data set [1] (Homo sapiens, DLD-1, 168 h) turned out to be 8.7 nM; in data set [2] (Homo sapiens, 168 h), 4.4 nM. The midpoint of inhibition in data set [3], the IC50, lay at 15 nM.
For `Cc1nc2ccc(CN3CCN(c4ccc(C(=O)N[C@H]5CC5(F)F)nc4F)CC3)c(F)c2[nH]c1=O` (single isomer, unassigned) [Example 20], the EC50 was found to be 5.7 nM in data set [1] (Homo sapiens, DLD-1, 168 h) and 3.1 nM in data set [2] (Homo sapiens, 168 h).
For the compound `Cc1nc2ccc(CN3CCN(c4ccc(C(=O)N[C@@H]5CC5(F)F)nc4F)CC3)c(F)c2[nH]c1=O` (single isomer, unassigned) [Example 21], the EC50 in data set [1] (Homo sapiens, DLD-1, 168 h) turned out to be 3.1 nM; in data set [2] (Homo sapiens, 168 h) it was 2 nM. The Papp A→B at 2 h, 10 μM in data set [4] (MDCK-MDR1, pH 7.4, read-out: MDCK-MDR1 Papp AB) is 16.6 ×10⁻⁶ cm/s; in data set [5] (pH 7.4, read-out: BCRP Papp AB), 21.4 ×10⁻⁶ cm/s. The Papp B→A at 2 h, 10 μM in data set [4] (MDCK-MDR1, pH 7.4, read-out: MDCK-MDR1 Papp BA) was 16.4 ×10⁻⁶ cm/s; in data set [5] (pH 7.4, read-out: BCRP Papp BA) it was 19.4 ×10⁻⁶ cm/s.
For `CNC(=O)c1ccc(N2CCN([C@@H](C)c3ccc4nc(C)c(=O)[nH]c4c3F)CC2)c(F)n1` (single isomer, unassigned) [Example 22], the 50% effective concentration (EC50) amounted to 25 nM in data set [1] (Homo sapiens, DLD-1, 168 h) and 14 nM in data set [2] (Homo sapiens, 168 h).
For the compound `CNC(=O)c1ccc(N2CCN([C@H](C)c3ccc4nc(C)c(=O)[nH]c4c3F)CC2)c(F)n1` (single isomer, unassigned) [Example 23], the EC50 is 18 nM in data set [1] (Homo sapiens, DLD-1, 168 h) and 18 nM in data set [2] (Homo sapiens, 168 h).
With `Cc1nc2ccc([C@H](C)N3CCN(c4ccc(C(=O)NC5CC5)nc4F)CC3)c(F)c2[nH]c1=O` (single isomer, unassigned) [Example 24], the EC50 in data set [1] (Homo sapiens, DLD-1, 168 h) is 20 nM; in data set [2] (Homo sapiens, 168 h) it was 7.9 nM. The compound further displayed an IC50 in data set [3] of 24 nM.
For `Cc1nc2ccc([C@@H](C)N3CCN(c4ccc(C(=O)NC5CC5)nc4F)CC3)c(F)c2[nH]c1=O` (single isomer, unassigned) [Example 25], in that order: 35 nM, 12 nM and 24 nM.
For `Cc1nc2ccc([C@H](C)N3CCN(c4ccc(C(=O)NC5CC5)nc4)CC3)c(F)c2[nH]c1=O` (single isomer, unassigned) [Example 28], the EC50 in data set [1] (Homo sapiens, DLD-1, 168 h) is 970 nM; in data set [2] (Homo sapiens, 168 h), 21 nM. In data set [3], this compound had an IC50 of 70 nM.
For `Cc1nc2ccc([C@@H](C)N3CCN(c4ccc(C(=O)NC5CC5)nc4)CC3)c(F)c2[nH]c1=O` (single isomer, unassigned) [Example 29], in that order: 45 nM, 84 nM and 90 nM.
As to `CNC(=O)c1ccc(N2CCN(Cc3ccc4nc(C)c(=O)[nH]c4c3F)C[C@H]2C)c(F)n1` [Example 3], the EC50 in data set [1] (Homo sapiens, DLD-1, 168 h) amounted to 17 nM; in data set [2] (Homo sapiens, 168 h) it was 35 nM.
For the compound `Cc1nc2ccc(CN3CCN(c4ccc(C(=O)NC56CC(C5)C6)nc4F)CC3)c(F)c2[nH]c1=O` [Example 4], the EC50 in data set [1] (Homo sapiens, DLD-1, 168 h) was determined as 5.2 nM; in data set [2] (Homo sapiens, 168 h) it was 3.7 nM. In addition, it took 18 nM to reach half-maximal inhibition in data set [3] (IC50).
For `CNC(=O)c1ccc(C2CCN(Cc3ccc4nc(C)c(=O)[nH]c4c3F)CC2)c(F)n1` [Example 5, 6-fluoro-5-{1-[(5-fluoro-2-methyl-3-oxo-4H-quinoxalin-6-yl)methyl]piperidin-4-yl}-N-methylpyridine-2-carboxamide], in that order: 23 nM, 11 nM and 16 nM.
For `CNC(=O)c1ccc(C2=CCN(Cc3ccc4nc(C)c(=O)[nH]c4c3F)CC2)c(F)n1` [Example 7, 2-fluoro-1′-[(5-fluoro-2-methyl-3-oxo-4H-quinoxalin-6-yl)methyl]-N-methyl-3′,6′-dihydro-2′H-[3,4′-bipyridine]-6-carboxamide] the same measures were 15 nM, 6.7 nM and 15 nM.
For `Cc1nc2ccc(CN3CCN(c4ccc(C(=O)NC5CC5)nc4)CC3)c(F)c2[nH]c1=O` [Example 8] the same measures were 39 nM, 13 nM and 15 nM.
`COCCNC(=O)c1ccc(N2CCN(Cc3ccc4nc(C)c(=O)[nH]c4c3F)CC2)c(F)n1` [Example 10]: the EC50 in data set [1] (Homo sapiens, DLD-1, 168 h) amounted to 14 nM; in data set [2] (Homo sapiens, 168 h) it was 8.1 nM.
Take `Cc1nc2ccc(CN3CCN(c4ccc(C(=O)N[C@H]5C[C@H](F)C5)nc4F)CC3)c(F)c2[nH]c1=O` [Example 11]: the EC50 is 6.8 nM in data set [1] (Homo sapiens, DLD-1, 168 h) and 3.8 nM in data set [2] (Homo sapiens, 168 h). Moreover, the IC50 in data set [3] is 5.2 nM.
As for `CCc1nc2ccc(CN3CCN(c4ccc(C(=O)NCCOC)nc4F)CC3)c(F)c2[nH]c1=O` [Example 12], the EC50 in data set [1] (Homo sapiens, DLD-1, 168 h) worked out at 7.1 nM; in data set [2] (Homo sapiens, 168 h), 5.3 nM.
Regarding `Cc1nc2ccc(CN3CCN(c4ccc(C(=O)NC5CC(F)(F)C5)nc4F)CC3)c(F)c2[nH]c1=O` [Example 13], the EC50 in data set [1] (Homo sapiens, DLD-1, 168 h) came to 4.4 nM; in data set [2] (Homo sapiens, 168 h), 5 nM.
As to `CCc1nc2ccc(CN3CCN(c4ccc(C(=O)NC5CC5)nc4F)CC3)c(F)c2[nH]c1=O` [Example 14], the EC50 in data set [1] (Homo sapiens, DLD-1, 168 h) turned out to be 2.8 nM; in data set [2] (Homo sapiens, 168 h), 2.1 nM. Moreover, the IC50 in data set [3] came out at 5.3 nM.
With `Cc1nc2ccc(CN3CC=C(c4ccc(C(=O)NC5CC5)nc4F)CC3)c(F)c2[nH]c1=O` [Example 26], the EC50 in data set [1] (Homo sapiens, DLD-1, 168 h) was determined as 21 nM; in data set [2] (Homo sapiens, 168 h) it was 23 nM. In data set [3], this compound registered a concentration for half-maximal inhibition (IC50) of 37 nM.
In the case of `Cc1nc2ccc(CN3CCC(c4ccc(C(=O)NC5CC5)nc4F)CC3)c(F)c2[nH]c1=O` [Example 27], the EC50 amounted to 27 nM in data set [1] (Homo sapiens, DLD-1, 168 h) and 11 nM in data set [2] (Homo sapiens, 168 h).
